In PubChem BioAssay AID493002 (Sanford-Burnham Center for Chemical Genomics, 2010):

test system: S. cerevisiae tim23-1 mutant growth, luminescence; test: tim23-1 mutant yeast growth inhibitors, dose response, luminescence, uHTS hits (AID 493002);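 also: yeast grown roughly 22 hours at 25 °C before the luminescence read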

| SMILES | IC50 |
| --- | --- |
| COC(=O)c1cccc(-c2ccc(C(c3c(C)[nH][nH]c3=O)c3c(C)[nH][nH]c3=O)o2)c1 | 15.1 µM |
| OCCOCCNc1ncnc2c1c(-c1ccccc1)cn2-c1ccccc1 | 10.7 µM |
| C=CCn1c(SCc2cc(=O)n3ccsc3n2)nc2cc(Cl)ccc2c1=O | 6.15 µM |
| COc1ccc(NC(=O)Nc2nc3c(s2)CCCC3)cc1 | 7.73 µM |
| CCOC(=O)c1cccc(NC(=O)c2cc3ccccc3o2)c1 | 14.3 µM |
| O=C1OC(c2ccccc2)=N/C1=C\C=C\c1ccco1 | 5.33 µM |
| c1ccc(Nc2nc(-c3ccccc3)nc3ccccc23)cc1 | 5.08 µM |
| CC(C)(C)c1csc(NC(=O)c2ccc(Br)o2)n1 | 9.04 µM |
| Nc1ccc2nc(SCc3ccccc3F)sc2c1 | 7.18 µM |
| COc1cc(/C=C/[N+](=O)[O-])ccc1OC(=O)c1cc2ccccc2oc1=O | 4.02 µM |
| CC1(C)CC(n2c(NCCO)nc3c(c2=O)C2(CCCC2)Cc2ccccc2-3)CCO1 (stereo unspecified) | 8.62 µM |
| Nc1nc2c(s1)CCc1c-2cnn1-c1ccccc1 | 12.4 µM |
| Cc1ccc(Nc2nc(Cl)c(C=O)s2)cc1Cl | 5.76 µM |
| Oc1ccc(Cl)cc1CNc1cnc2ccccc2c1 | 15.3 µM |
| O=C(Nc1ccc2c(c1)OCCO2)c1cccc(Br)c1 | 14.5 µM |
| O=C(c1ccc(-c2nc3ccccc3s2)s1)N1CCOCC1 | 19.2 µM |
| CCc1sc(C(=O)Nc2nccs2)cc1C | 16 µM |
| O=C1NN=C(c2ccc(Br)cc2)CC1c1ccc(Cl)cc1 (stereo unspecified) | 9.86 µM |
| O=C(CN1C(=O)S/C(=C/c2ccncc2)C1=O)Nc1ccccc1 | 13.5 µM |
| C(=C\c1ccccc1)/C=N/Nc1nc2ccccc2[nH]1 | 8.63 µM |
| NC(=S)NNc1cc(Cl)cc(Cl)c1 | 10.5 µM |

| SMILES | IC50 |
| --- | --- |
| COc1cccc2sc3cc(NCc4ccc5c(c4)OCO5)ccc3c(=O)c12 | 12.3 µM |
| Cc1ccc(-c2nnc(N3CCN(c4ccccn4)CC3)c3ccccc23)cc1 | 7.64 µM |
| Cc1ccc2nc(N3C(=O)CNC3=S)sc2c1 | 3.73 µM |
| CC(C)n1ncc2c(C(=O)NCC(=O)Nc3ccccc3Br)cc(C3CC3)nc21 | 16 µM |
| O=C(Nc1ccc(C(=O)N2CCCc3ccccc32)cc1)c1cccs1 | 7.75 µM |
| O=C(N/N=C/c1ccc([N+](=O)[O-])s1)c1ccncc1 | 4.88 µM |
| O=C(Nc1ncc([N+](=O)[O-])s1)c1ccc2c(c1)OCO2 | 17.6 µM |
| CCOc1ccc(N=C(C)C2=C(O)c3ccccc3C2=O)cc1 | 11.2 µM |
| Cc1nc2ccccc2c(=O)n1/N=C/c1cc(Br)ccc1O | 6.9 µM |
| COc1ccc(NCc2ccc([N+](=O)[O-])s2)cc1 | 6.99 µM |
| NS(=O)(=O)c1ccc(N=Cc2c(O)n(C3CCCCC3)c(=O)n(C3CCCCC3)c2=O)cc1 | 14.4 µM |
| Cc1[nH][nH]c(=O)c1C(c1ccc(-c2ccc(Cl)c(Cl)c2)o1)c1c(C)[nH][nH]c1=O | 14 µM |
| COC(=O)c1c(-c2ccc(S(C)(=O)=O)cc2)sc2ccc(OC)cc12 | 12 µM |
| Cc1cccc(NC(=O)c2cc3ccccc3o2)c1 | 13 µM |
| O=C(Nc1ccc(Cl)cc1)c1cccs1 | 11 µM |
| CC(C)(C)c1csc(NC(=O)c2ccc(Cl)s2)n1 | 4.07 µM |
| Cc1cccc(C)c1N1C(=O)CN(Cc2ccccc2)C1=S | 28.1 µM |
| O=C(Nc1nccs1)c1ccc(Cl)s1 | 7.48 µM |
| O=C(Nc1ccc2oc(Cc3ccc(Cl)cc3)nc2c1)c1cccnc1 | 14.2 µM |
| Cc1ccc(O)c(C(=O)c2cnn(C(=O)Cc3csc(C)n3)c2)c1 | 12.4 µM |
| O=C1c2ccccc2-c2n[nH]c3cccc1c23 | 6.31 µM |

| SMILES | IC50 |
| --- | --- |
| Cc1ccc(NCc2nc3ccccc3n2CCOc2ccccc2)cc1 | 10.4 µM |
| O=C(CS(=O)(=O)c1ccccc1)Nc1nc(-c2ccc(F)cc2)cs1 | 14.2 µM |
| COc1ccc(S(=O)(=O)NCc2ccc(C)cc2)cc1 | 20.5 µM |
| O=C(/C=C/c1ccccc1Cl)Nc1ccccc1 | 12.2 µM |
| CCNC(=O)c1c(O)c2ccccc2[nH]c1=O | 33.5 µM |
| CCOC(=O)c1cccc(OC(=O)CCNC(=O)c2ccc(Cl)cc2)c1 | 13.1 µM |
| CC1=C(C)/C(=N/OC(=O)c2cccc([N+](=O)[O-])c2)C=CC1=O | 8.03 µM |
| Cc1cc(=O)oc2c1c(C(F)(F)F)nn2-c1ccccc1 | 7.85 µM |
| CCC(C)C(=O)Nc1nc2ccc(OC)cc2s1 (stereo unspecified) | 18.1 µM |
| CC1(C)CC(=O)C=C(c2cccc(Cl)c2O)C1 | 8.1 µM |
| Oc1ccccc1C1NN=C(c2ccccc2)S1 (stereo unspecified) | 18.3 µM |
| CC(C)(C)N1C(=O)c2ccc(C(=O)Nc3nccs3)cc2C1=O | 20.3 µM |
| Cn1cc(C(=O)c2ccc(Cl)cc2)cc1-c1nc2ccccc2n1C | 12.3 µM |
| O=c1cc(C(Cl)(Cl)Cl)oc2c1ccc1ccccc12 | 2.2 µM |
| CC1(C)CC2CC(C)(CN2C(=O)c2cc(-c3ccc(O)cc3)on2)C1 (stereo unspecified) | 15.3 µM |
| Cc1cnc(NC(=O)c2sc(Nc3ccccc3)nc2N)o1 | 9.39 µM |
| Cc1ccnc(NC(=O)c2ccc3c(c2)C(=O)N(CC(C)C)C3=O)c1 | 13 µM |
| COC(=O)c1ccc2nc(NC(=O)C3CC3)sc2c1 | 7.12 µM |
| CC(C)n1cc(NC(=O)c2cc(-c3ccccc3)on2)cn1 | 7.69 µM |
